Measured values reported in US20250361230A1, “LATS Inhibitors and Uses Thereof” (The USA, as Represented by the Secretary, Dept. of Heath …, priority 2022, published 2025).
Read-outs that look alike come from different tables or passages of the source.

Assays:
Format in all cases: biochemical
LATS1 = target: T1, LATS1 (Homo sapiens, UniProt O95835); assay: RBC HotSpot kinase assay (33P-ATP, P81 filter-binding), LATS1; conditions: read-out: LATS1 IC50
T1 sequence (O95835 1-1130): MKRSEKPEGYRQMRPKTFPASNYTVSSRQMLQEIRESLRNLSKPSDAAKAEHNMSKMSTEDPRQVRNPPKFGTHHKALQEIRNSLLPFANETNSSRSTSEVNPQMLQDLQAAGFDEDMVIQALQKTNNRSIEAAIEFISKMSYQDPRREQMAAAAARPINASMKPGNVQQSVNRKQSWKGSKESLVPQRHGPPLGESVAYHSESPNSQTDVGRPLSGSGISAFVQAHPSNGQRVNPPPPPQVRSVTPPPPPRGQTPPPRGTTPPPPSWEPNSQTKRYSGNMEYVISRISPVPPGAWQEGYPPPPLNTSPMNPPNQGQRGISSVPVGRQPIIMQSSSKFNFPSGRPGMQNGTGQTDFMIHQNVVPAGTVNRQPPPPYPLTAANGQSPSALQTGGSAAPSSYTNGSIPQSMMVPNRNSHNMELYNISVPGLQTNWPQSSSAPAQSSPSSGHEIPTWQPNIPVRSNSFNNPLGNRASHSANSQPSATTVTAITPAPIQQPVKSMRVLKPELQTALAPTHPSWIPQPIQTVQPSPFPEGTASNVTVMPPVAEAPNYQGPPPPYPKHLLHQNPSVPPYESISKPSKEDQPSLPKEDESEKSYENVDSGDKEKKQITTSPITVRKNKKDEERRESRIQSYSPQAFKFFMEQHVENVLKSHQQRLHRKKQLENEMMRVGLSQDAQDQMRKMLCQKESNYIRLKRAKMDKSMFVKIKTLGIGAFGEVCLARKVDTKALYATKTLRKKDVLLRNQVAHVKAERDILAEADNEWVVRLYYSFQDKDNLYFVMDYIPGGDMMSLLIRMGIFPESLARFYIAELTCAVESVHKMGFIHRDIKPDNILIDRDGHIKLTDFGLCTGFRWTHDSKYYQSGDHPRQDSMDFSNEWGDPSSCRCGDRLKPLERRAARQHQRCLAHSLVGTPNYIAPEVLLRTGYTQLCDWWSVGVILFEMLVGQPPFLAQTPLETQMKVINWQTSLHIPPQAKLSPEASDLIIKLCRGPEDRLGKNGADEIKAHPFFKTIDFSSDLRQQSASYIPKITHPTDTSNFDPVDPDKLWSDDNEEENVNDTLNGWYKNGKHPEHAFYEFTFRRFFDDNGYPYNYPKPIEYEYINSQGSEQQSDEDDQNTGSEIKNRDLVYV
Description: (§1) Biochemical kinase inhibitory data was obtained for various exemplary compounds prepared according to the above.
(§2) The reagents used are as follows: Base Reaction buffer; 20 mM Hepes (pH 7.5), 10 mM MgCl2, 1 mM EGTA, 0.01% Brij35, 0.02 mg/ml BSA, 0.1 mM Na3VO4, 2 mM DTT, […]. Required cofactors were added individually to each kinase reaction.
(§3) The reaction procedure was as follows: • 1) Substrates were prepared in freshly prepared Reaction Buffer. • 2) Any required cofactors were delivered to the substrate solution above. • 3) Kinase was delivered into the substrate solution and gently mixed. • 4) Compounds were delivered in 100% DMSO into the kinase reaction mixture by Acoustic technology (Echo550; nanoliter range), followed by incubation for 20 min at room temp. • 5) ^33P-ATP was delivered into the reaction mixture to initiate the reaction. • 6) The mixture was incubated for 2 hours at room temperature. • 7) Kinase activity was detected by P81 filter-binding method.
(§4) Using the above functional assay, the inhibitory activity of the compounds for LATS1/2 versus AKT was characterized. The assays were typically run in a 10-point curve, in singlet, to produce a titration curve from which an IC50 value was obtained.
(§5) The reagents used are as follows: Base Reaction buffer; 20 mM Hepes (pH 7.5), 10 mM MgCl2, 1 mM EGTA, 0.01% Brij35, 0.02 mg/ml BSA, 0.1 mM Na3VO4, 2 mM DTT, 1% DMSO. Required cofactors were added individually to each kinase reaction.
(§6) Biochemical kinase inhibitory data was obtained for various exemplary compounds prepared according to the above in accordance with the protocols described in Examples 4 and 8. All biological activities are IC50, in nM.

LATS2 = target: T2, LATS2 (Homo sapiens, UniProt Q9NRM7); assay: RBC HotSpot kinase assay (33P-ATP, P81 filter-binding), LATS2; conditions: read-out: LATS2 IC50
T2 sequence (Q9NRM7 1-1088): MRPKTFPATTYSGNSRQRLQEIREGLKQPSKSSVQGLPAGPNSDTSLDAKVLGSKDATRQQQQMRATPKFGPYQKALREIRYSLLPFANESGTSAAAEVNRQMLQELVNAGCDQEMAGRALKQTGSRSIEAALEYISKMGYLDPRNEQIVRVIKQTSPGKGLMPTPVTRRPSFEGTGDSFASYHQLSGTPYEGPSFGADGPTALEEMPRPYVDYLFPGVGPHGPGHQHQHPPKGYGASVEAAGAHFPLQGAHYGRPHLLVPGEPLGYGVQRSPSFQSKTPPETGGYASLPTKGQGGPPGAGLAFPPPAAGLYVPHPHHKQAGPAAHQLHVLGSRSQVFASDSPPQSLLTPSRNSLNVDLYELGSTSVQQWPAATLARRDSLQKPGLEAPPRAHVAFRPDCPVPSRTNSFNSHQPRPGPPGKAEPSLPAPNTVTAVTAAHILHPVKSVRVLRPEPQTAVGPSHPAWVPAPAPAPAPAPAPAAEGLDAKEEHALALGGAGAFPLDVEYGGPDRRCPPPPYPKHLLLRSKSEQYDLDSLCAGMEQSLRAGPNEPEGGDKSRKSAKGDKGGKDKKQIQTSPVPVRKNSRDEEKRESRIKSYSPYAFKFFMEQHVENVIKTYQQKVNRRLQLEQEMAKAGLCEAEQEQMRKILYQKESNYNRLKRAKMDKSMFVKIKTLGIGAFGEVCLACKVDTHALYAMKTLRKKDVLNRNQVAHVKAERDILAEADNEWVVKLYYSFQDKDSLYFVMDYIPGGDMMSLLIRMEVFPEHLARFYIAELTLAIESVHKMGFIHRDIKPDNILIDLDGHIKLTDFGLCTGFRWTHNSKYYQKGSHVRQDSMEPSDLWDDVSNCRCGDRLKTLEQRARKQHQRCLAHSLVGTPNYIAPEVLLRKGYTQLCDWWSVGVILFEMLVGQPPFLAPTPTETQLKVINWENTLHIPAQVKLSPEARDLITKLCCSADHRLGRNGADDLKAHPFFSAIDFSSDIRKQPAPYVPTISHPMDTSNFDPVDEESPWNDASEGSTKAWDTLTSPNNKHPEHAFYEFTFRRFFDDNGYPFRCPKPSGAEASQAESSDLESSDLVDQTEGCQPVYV
Description: as §1, §2, §3, §4, §5, §6

AKT = AKT (Homo sapiens, UniProt P31749); assay: RBC HotSpot kinase assay (33P-ATP, P81 filter-binding), AKT; conditions: read-out: AKT IC50
Sequence of AKT (P31749 whole entry): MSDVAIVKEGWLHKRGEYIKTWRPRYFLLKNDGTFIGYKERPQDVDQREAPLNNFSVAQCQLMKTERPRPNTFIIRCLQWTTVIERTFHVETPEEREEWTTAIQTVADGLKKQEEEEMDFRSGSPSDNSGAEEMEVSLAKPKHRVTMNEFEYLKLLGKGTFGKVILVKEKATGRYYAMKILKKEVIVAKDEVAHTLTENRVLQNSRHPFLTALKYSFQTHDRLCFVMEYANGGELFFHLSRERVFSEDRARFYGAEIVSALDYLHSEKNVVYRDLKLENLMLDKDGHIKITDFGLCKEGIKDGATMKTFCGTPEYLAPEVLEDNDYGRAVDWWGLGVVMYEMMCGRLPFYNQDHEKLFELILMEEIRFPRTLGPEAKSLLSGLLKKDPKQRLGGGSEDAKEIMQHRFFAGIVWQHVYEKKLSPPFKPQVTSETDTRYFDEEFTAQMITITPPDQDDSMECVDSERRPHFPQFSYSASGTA
Description: as §1, §2, §3, §4, §5, §6

[1] = Table 28, biochemical kinase assay
[2] = Table 32, biochemical kinase assay

Structure (SMILES) | IC50 (LATS1; [1]) [µM] | IC50 (LATS2; [1]) [µM] | IC50 (AKT; [1]) [µM] | other results
Cc1nc(-c2ccnc3[nH]cc(F)c23)ccc1C1(O)CC2(CNC2)C1 [Compound 107, 6-(6-(3-fluoro-1H-pyrrolo[2,3-b]pyridin-4-yl)-2-methylpyridin-3-yl)-2-azaspiro[3.3]heptan-6-ol] | 0.473 | 0.661 | > 10 | –
COC(=O)c1c[nH]c2nccc(-c3ccc(C4(O)CNC4)c(Cl)c3)c12 [Compound 106, methyl 4-(3-chloro-4-(3-hydroxyazetidin-3-yl)phenyl)-1H-pyrrolo[2,3-b]pyridine-3-carboxylate] | 0.0182 | 0.11 | 0.885 | –
Cc1cc(-c2ccnc3[nH]cc(F)c23)cc(C)c1CN [Compound 222, (4-(3-fluoro-1H-pyrrolo[2,3-b]pyridin-4-yl)-2,6-dimethylphenyl) methanamine] | 0.016 | 0.031 | 0.47 | –
CC(C)(C)OC(=O)N1CCC(c2ccc(-c3ccnc4[nH]cc(F)c34)cc2)(c2nnco2)CC1 [Compound 196, tert-butyl 4-(4-(3-fluoro-1H-pyrrolo[2,3-b]pyridin-4-yl)phenyl)-4-(1,3,4-oxadiazol-2-yl)piperidine-1-carboxylate] | > 10 | > 10 | > 10 | –
Fc1cnc2[nH]ccc2c1-c1ccc(C2CCNCC2)cc1 [Compound 186, 5-fluoro-4-(4-(piperidin-4-yl)phenyl)-1H-pyrrolo[2,3-b]pyridine] | 0.036 | 0.068 | 2.05 | –
CC1(c2ccc(-c3ccnc4[nH]cc(F)c34)cc2Cl)CCNCC1 [Compound 200, 4-(3-chloro-4-(4-methylpiperidin-4-yl)phenyl)-3-fluoro-1H-pyrrolo[2,3-b]pyridine] | 0.034 | 0.02 | 0.012 | –
Cc1cc(-c2ccnc3[nH]cc(C#N)c23)ccc1[C@@]1(O)[C@H](C)CN(C(=O)[C@@H](CO)N(C)C)C[C@@H]1C [Compound 2022, 4-(4-((3S,4S,5R)-1-(dimethyl-D-seryl)-4-hydroxy-3,5-dimethylpiperidin-4-yl)-3-methylphenyl)-1H-pyrrolo[2,3-b]pyridine-3-carbonitrile] | – | – | – | IC50 (LATS1; biochemical kinase inhibition): 0.0053 µM; IC50 (LATS2; biochemical kinase inhibition): 0.003 µM; IC50 (AKT; biochemical kinase inhibition): 0.251 µM
CC1CC(O)(c2ccc(-c3ccnc4[nH]cc(Br)c34)cc2Cl)CC(C)N1 (stereo not drawn) [Compound 120, 4-(4-(3-bromo-1H-pyrrolo[2,3-b]pyridin-4-yl)-2-chlorophenyl)-2,6-dimethylpiperidin-4-ol] | 0.058 | 0.03 | 0.103 | –
C[C@@H]1CN(C(=O)C2CC(C(F)(F)F)C2)C[C@H](C)C1(O)c1c(F)cc(-c2ccnc3[nH]cc(F)c23)cc1F (stereo partly drawn) [Compound 74, ((3S,5R)-4-(2,6-difluoro-4-(3-fluoro-1H-pyrrolo[2,3-b]pyridin-4-yl)phenyl)-4-hydroxy-3,5-dimethylpiperidin-1-yl)(3-(trifluoromethyl)cyclobutyl)methanone] | 0.0353 | 0.0122 | > 10 | –
Cc1cc(-c2ccnc3[nH]cc(-c4cccnc4)c23)cc(F)c1[C@@]1(O)[C@H](C)CN(C(=O)CN)C[C@@H]1C [Compound 318, 2-amino-1-((3S,4s,5R)-4-(2-fluoro-6-methyl-4-(3-(pyridin-3-yl)-1H-pyrrolo[2,3-b]pyridin-4-yl)phenyl)-4-hydroxy-3,5-dimethylpiperidin-1-yl)ethan-1-one] | 0.0041 | 0.0013 | 1.42 | –
O=S(=O)(CCC1CC1)N1CCC(c2ccc(-c3ccnc4[nH]cc(F)c34)cc2Cl)CC1 [Compound 163, 4-(3-chloro-4-(1-((2-cyclopropylethyl)sulfonyl)piperidin-4-yl)phenyl)-3-fluoro-1H-pyrrolo[2,3-b]pyridine] | > 10 | > 10 | > 10 | –
Cc1cc(-c2ccnc3[nH]cc(C#N)c23)cc(F)c1[C@@]1(O)[C@H](C)CN(C(=O)[C@@H](CO)N(C)C)C[C@@H]1C [Compound 2021, 4-(4-((3S,4S,5R)-1-(dimethyl-D-seryl)-4-hydroxy-3,5-dimethylpiperidin-4-yl)-3-fluoro-5-methylphenyl)-1H-pyrrolo[2,3-b]pyridine-3-carbonitrile] | – | – | – | IC50 (LATS1; biochemical kinase inhibition): 0.0051 µM; IC50 (LATS2; biochemical kinase inhibition): 0.0034 µM; IC50 (AKT; biochemical kinase inhibition): 0.223 µM
Cc1cc(-c2ccnc3[nH]cc(Cl)c23)cc(F)c1[C@@]1(O)[C@H](C)CNC[C@@H]1C [Compound 303, (3S,4s,5R)-4-(4-(3-chloro-1H-pyrrolo[2,3-b]pyridin-4-yl)-2-fluoro-6-methylphenyl)-3,5-dimethylpiperidin-4-ol] | 0.0048 | 0.0033 | 0.246 | –
CN1[C@@H]2CC[C@H]1CC(O)(c1ccc(-c3ccnc4[nH]cc(F)c34)cc1)C2 (stereo partly drawn) [Compound 133, (1R,5S)-3-(4-(3-fluoro-1H-pyrrolo[2,3-b]pyridin-4-yl)phenyl)-8-methyl-8-azabicyclo[3.2.1]octan-3-ol] | 0.0201 | 0.0191 | 0.39 | –
O=C(CO)NCC(O)(c1ccc(Cl)cc1)c1ccc(-c2ccnc3[nH]ccc23)cc1 (stereo not drawn) [Compound 1015, N-(2-(4-(1H-pyrrolo[2,3-b]pyridin-4-yl)phenyl)-2-(4-chlorophenyl)-2-hydroxyethyl)-2-hydroxyacetamide] | – | – | – | IC50 (LATS1; [2]): 0.004 µM; IC50 (LATS2; [2]): 0.0037 µM; IC50 (AKT; [2]): 0.0059 µM
